Holding throughout (format): biochemical
In test [1] the test system is OATA L57A/W58A/V154A.
Test [2] concerns OATA W58A.
Test [3] has as its system OATA L57A/W58A.
In test [4] the test system is OATA W58L.
Test [5] has as its system OATA W58A. The source holds these as a separate data set.
The test system of test [6] is OATA L57A/W58A. The source holds these as a separate data set.
For test [7], the system named is OATA L57A.
In test [8] the test system is OATA L57A/W58A/V154A. The source holds these as a separate data set.
Test [9] relates to OATA L57Q/W58N/I261L.
Test [10] concerns OATA W58L. This is another data set of the same source.
The test system of test [11] is OATA L57C/W58L/I261A.
Test [12] concerns OATA W58D/I261A.
Test [13] concerns W58A mutant.
The test system of test [14] is OATA L57C/W58L/I261A. The source holds these as a separate data set.
In test [15] the test system is OATA W58A. The note with it: pH 7.
In test [16] the test system is OATA W58I. The note with it: pH 7.
In test [17] the test system is OATA L57A/W58A. The source holds these as a separate data set.
Test [18] relates to OATA L57A. This is another data set of the same source.
Test [19] relates to OATA W58V. The note with it: pH 7.
Test [20] has as its system OATA W58M. Particulars: pH 7.
Test [21] relates to OATA W58D/I261A. The source holds these as a separate data set.
Test [22] concerns OATA W58A, OATA W58M, OATA W58V and OATA W58I mutants.
Test [23] concerns OATA L57Q/W58N/I261L. This is another data set of the same source.
Test [24] relates to OATA W58A. The source holds these as a separate data set.
Test [25] concerns OATA W58L. Particulars: pH 7.
Test [26] concerns OATA L57A/W58A/V154A. The source holds these as a separate data set.
Test [27] concerns OATA W58L. The source holds these as a separate data set.
The test system of test [28] is OATA W58L. This is another data set of the same source.

Where “and” joins values, the source holds several entries; their conditions need not be identical. Equal entries are not always repeated. Where two headings read alike, the source gives them in different places.

The values that follow come from patent publication US10308916B2, “Omega-transaminase mutants with activity improvements toward ketones and methods for producing optically pure amines” (Industry-Academic Cooperation Foundation, Yonsei University, priority 2015, dated 2019).

On to `CC(C)C(N)c1ccccc1` (racemic) [2-Methyl-1-phenylpropan-1-amine], for which, in test [1], the “Relative activity, OATA L57A/W58A/V154A” value was 167%. Also, in test [2], the “relative activity to (S)-α-MBA measured with OATA WT, OATA W58A” value turned out to be 6%. Further, the “Relative activity, OATA L57A/W58A” value in test [3] amounted to 12%. For the same compound, the “Relative reactivity, OATA W58L” value in test [4] came to 2%. Further, the “Relative reactivity, OATA W58A” value in test [5] is 3%.
As for `CCC(=O)C(=O)O` [2-oxobutanoic acid], in [6], the “Relative activity, OATA L57A/W58A” value is on record as 290% and the “fold increase in reaction rate compared to OATA L57A” value is given as 8. In test [7], the “Relative activity, OATA L57A” value is recorded as 34%. In [8], the “Relative activity, OATA L57A/W58A/V154A” value came to 852% and the “fold increase in reaction rate compared to OATA L57A” value is given as 25.
For `CCCCC(=O)C(=O)O` [2-oxohexanoic acid], in test [6], the “Relative activity, OATA L57A/W58A” value worked out at 49%. For the same compound, in test [7], the “Relative activity, OATA L57A” value is given as 15%. The “Relative activity, OATA L57A/W58A/V154A” value in test [8] was found to be 114%.
Consider `CCCCCCC(=O)C(=O)O` [2-oxooctanoic acid], for which, in [6], the “Relative activity, OATA L57A/W58A” value amounted to 7%. Moreover, the “Relative activity, OATA L57A” value in test [7] came to 2%. The “Relative activity, OATA L57A/W58A/V154A” value in [8] is given as 21%.
With `CCCC(=O)C(=O)O` [2-oxopentanoic acid], the “Relative activity, OATA L57A/W58A” value in [6] is on record as 103%. Further, the “Relative activity, OATA L57A” value in [7] stood at 40%. Also, the “Relative activity, OATA L57A/W58A/V154A” value in test [8] was determined as 206%.
On to `C[C@H](N)c1ccccc1` [(S)-α-methylbenzylamine], for which, in test [9], the “Relative activity, OATA L57Q/W58N/I261L” value came out at 262%. The “Relative activity, OATA L57A/W58A/V154A” value in test [1] was 1,190%^. Also, in test [10], the “Fold-increase in kcat/KM” value worked out at 170 and the “fold decrease in KM (tighter binding)” value came out at 207. In addition, the “Relative activity, OATA L57C/W58L/I261A” value in test [11] is on record as 900%. In addition, the “Relative activity, OATA W58D/I261A” value in [12] is given as 17%. The “Relative activity, OATA L57A/W58A” value in test [3] came to 621%. In [4], the “Relative reactivity, OATA W58L” value was found to be 100%. Also, in [5], the “Relative reactivity, OATA W58A” value was 100%.
As for `CCC[C@H](N)c1ccccc1` [(S)-α-propylbenzylamine], the “Relative activity, OATA L57A/W58A/V154A” value in [1] worked out at 749%. For the same compound, in test [2], the “relative activity to (S)-α-MBA measured with OATA WT, OATA W58A” value was 20%. Besides, in test [3], the “Relative activity, OATA L57A/W58A” value turned out to be 240%. The “Relative reactivity, OATA W58L” value in [4] is listed as 2%. In addition, the “Relative reactivity, OATA W58A” value in [5] was found to be 10%.
Take `NCc1ccccc1` [Benzylamine]: the “Relative activity, OATA L57Q/W58N/I261L” value in [9] was found to be 123%. Further, the “Relative activity, OATA L57C/W58L/I261A” value in [11] was found to be 792%. Besides, the “Relative activity, OATA W58D/I261A” value in test [12] is 17%. Further, the “Relative reactivity, OATA W58L” value in test [4] was 49%. Besides, the “Relative reactivity, OATA W58A” value in [5] came to 50%.
Turning to `CC(C)N` [Isopropylamine], the “Relative activity, OATA L57Q/W58N/I261L” value in test [9] came to 23%. Also, in test [10], the “Fold-increase in kcat/KM” value is 8.6 and the “fold decrease in KM (tighter binding)” value is on record as 8.9. Further, the “Relative activity, OATA L57C/W58L/I261A” value in [11] came to 8%. Moreover, the “Relative reactivity, OATA W58L” value in test [4] was determined as 72%. The “Relative reactivity, OATA W58A” value in test [5] was 28%.
Regarding `CC(=O)c1ccccc1` [Ketone 1a, acetophenone], the “fold increase in activity” value in test [13] was 41. Besides, in test [10], the “Fold-increase in kcat/KM” value is on record as 340, the “fold decrease in KM (tighter binding)” value is recorded as 6.1, the “fold increase in turnover number (kcat)” value amounted to 55.7 and the “kcat relative to kcat of the wild-type enzyme for pyruvate” value is “up to 20%”. The “Relative activity, OATA L57C/W58L/I261A” value in test [14] is on record as 12,174%. Besides, the “Relative activity to acetophenone, OATA W58A” value in [15] stood at 100%. Also, in test [16], the “Relative activity to acetophenone, OATA W58I” value (“Relative activity … OATA W58I” for short) turned out to be 100%. The “Relative activity, OATA L57A/W58A” value in test [17] is reported as 716%. Further, in test [18], the “Relative activity, OATA L57A” value came to 89%. The “Relative activity to acetophenone, OATA W58V” value (“Relative activity … OATA W58V” below) in test [19] turned out to be 100%. In addition, the “Relative activity to acetophenone, OATA W58M” value (shortened to “Relative activity … OATA W58M”) in test [20] is recorded as 100%. Moreover, in test [21], the “Relative activity, OATA W58D/I261A” value is 648%. The “fold increase in reactivity as compared to OATA WT” value in test [22] was “more than 40”. For the same compound, the “Relative activity, OATA L57Q/W58N/I261L” value in test [23] is reported as 2,500%. Besides, in [24], the “Relative activity, OATA W58A” value was 1,206%^. In addition, the “Relative activity to acetophenone, OATA W58L” value (“Relative activity … OATA W58L” for short) in test [25] came to 100%. Moreover, the “Relative activity, OATA L57A/W58A/V154A” value in [26] stood at 637%.
In the case of `CCCC(=O)c1ccccc1` [Ketone 1c, butyrophenone], the “Relative activity to acetophenone, OATA W58A” value in [15] amounted to 8%. The “Relative activity … OATA W58I” value in test [16] worked out at 11%. Further, in test [17], the “Relative activity, OATA L57A/W58A” value is on record as 302%; the “fold increase in amination activity compared to OATA W58A” value is > 30 and 38. Besides, in [18], the “Relative activity, OATA L57A” value was determined as 1%. In addition, the “Relative activity … OATA W58V” value in [19] stood at 12%. For the same compound, the “Relative activity … OATA W58M” value in test [20] is given as 15%. For the same compound, the “Relative activity, OATA W58A” value in [24] worked out at 8%. Moreover, the “Relative activity … OATA W58L” value in test [25] is greater than 0.1%^. Moreover, in test [26], the “Relative activity, OATA L57A/W58A/V154A” value is recorded as 747%.
Take `CC(=O)CCc1ccccc1` [Ketone 1f, benzylacetone]: the “Relative activity, OATA L57C/W58L/I261A” value in test [14] is 6,330%. Besides, the “Relative activity to acetophenone, OATA W58A” value in test [15] is recorded as 219%. Further, the “Relative activity … OATA W58I” value in [16] amounted to 125%. In addition, the “Relative activity, OATA L57A” value in test [18] is given as 439%. In addition, in test [19], the “Relative activity … OATA W58V” value is 193%. Moreover, the “Relative activity … OATA W58M” value in [20] was 178%. The “Relative activity … OATA W58L” value in [25] is 277%. For the same compound, in test [27], the “Conversion (%) OATAW58L” value amounted to 93% and the “Conversion, preparative scale” value was determined as 92%.
On to `O=C1CCc2ccccc21` [Ketone 1g, 1-indanone], for which, in [14], the “Relative activity, OATA L57C/W58L/I261A” value is 609%. The “Relative activity to acetophenone, OATA W58A” value in [15] was 15%. Besides, in test [16], the “Relative activity … OATA W58I” value is reported as 16%. In test [18], the “Relative activity, OATA L57A” value is 0.6%. Further, the “Relative activity … OATA W58V” value in test [19] is listed as 17%. Besides, in test [20], the “Relative activity … OATA W58M” value stood at 20%. Also, the “Relative activity … OATA W58L” value in test [25] is 2%.
In the case of `O=C1CCc2ccccc21` [Ketone 1g], the Fold-increase in [28] is on record as greater than 760.
`O=C1CCCc2ccccc21` [Ketone 1h] returned a Fold-increase in [28] greater than 210.
`CC(=O)C(=O)O` [pyruvate, pyruvic acid]: in [10], the “Fold-increase in kcat/KM” value worked out at 0.41; the “decrease in specificity constant (kcat/KM)” value stood at 60%; the “fold increase in turnover number (kcat)” value was 7.1; the “weaker binding, fold decrease in KM as printed” value stood at 17.5. Further, in test [6], the “Relative activity, OATA L57A/W58A” value worked out at 707%. In addition, the “Relative activity, OATA L57A” value in [7] came out at 77%. In test [8], the “Relative activity, OATA L57A/W58A/V154A” value is 1,190%.
